# According to ChEMBL document CHEMBL3991601, “The target landscape of clinical kinase drugs” (Science, 2017):
# The source made the active and inactive calls.
# Experiments:
# [1] = target: T1, Very long-chain specific acyl-CoA dehydrogenase, mitochondrial (Homo sapiens, UniProt P49748)
# T1 sequence (P49748 whole entry): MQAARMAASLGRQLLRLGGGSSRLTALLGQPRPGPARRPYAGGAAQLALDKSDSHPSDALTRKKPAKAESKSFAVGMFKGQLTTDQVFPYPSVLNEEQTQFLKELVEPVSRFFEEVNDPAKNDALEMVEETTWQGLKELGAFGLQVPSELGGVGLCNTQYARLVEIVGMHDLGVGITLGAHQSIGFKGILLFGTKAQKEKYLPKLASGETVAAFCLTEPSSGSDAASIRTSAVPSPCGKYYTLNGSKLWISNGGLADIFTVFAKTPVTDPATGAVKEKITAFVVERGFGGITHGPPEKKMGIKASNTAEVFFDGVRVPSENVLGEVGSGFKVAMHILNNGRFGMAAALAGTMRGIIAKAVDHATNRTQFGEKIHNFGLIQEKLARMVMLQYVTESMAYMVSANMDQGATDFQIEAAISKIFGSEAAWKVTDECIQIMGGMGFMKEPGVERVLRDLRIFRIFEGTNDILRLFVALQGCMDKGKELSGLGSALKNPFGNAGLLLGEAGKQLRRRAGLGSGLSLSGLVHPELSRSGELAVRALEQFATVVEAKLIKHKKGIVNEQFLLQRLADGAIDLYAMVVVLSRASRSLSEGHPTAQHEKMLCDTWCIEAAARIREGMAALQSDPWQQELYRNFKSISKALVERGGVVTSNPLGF
# [2] = target: GTP-binding protein 4 (Homo sapiens, UniProt Q9BZE4)
# [3] = target: T2, Mitogen-activated protein kinase kinase kinase 6 (Homo sapiens, UniProt O95382)
# T2 sequence (O95382 whole entry): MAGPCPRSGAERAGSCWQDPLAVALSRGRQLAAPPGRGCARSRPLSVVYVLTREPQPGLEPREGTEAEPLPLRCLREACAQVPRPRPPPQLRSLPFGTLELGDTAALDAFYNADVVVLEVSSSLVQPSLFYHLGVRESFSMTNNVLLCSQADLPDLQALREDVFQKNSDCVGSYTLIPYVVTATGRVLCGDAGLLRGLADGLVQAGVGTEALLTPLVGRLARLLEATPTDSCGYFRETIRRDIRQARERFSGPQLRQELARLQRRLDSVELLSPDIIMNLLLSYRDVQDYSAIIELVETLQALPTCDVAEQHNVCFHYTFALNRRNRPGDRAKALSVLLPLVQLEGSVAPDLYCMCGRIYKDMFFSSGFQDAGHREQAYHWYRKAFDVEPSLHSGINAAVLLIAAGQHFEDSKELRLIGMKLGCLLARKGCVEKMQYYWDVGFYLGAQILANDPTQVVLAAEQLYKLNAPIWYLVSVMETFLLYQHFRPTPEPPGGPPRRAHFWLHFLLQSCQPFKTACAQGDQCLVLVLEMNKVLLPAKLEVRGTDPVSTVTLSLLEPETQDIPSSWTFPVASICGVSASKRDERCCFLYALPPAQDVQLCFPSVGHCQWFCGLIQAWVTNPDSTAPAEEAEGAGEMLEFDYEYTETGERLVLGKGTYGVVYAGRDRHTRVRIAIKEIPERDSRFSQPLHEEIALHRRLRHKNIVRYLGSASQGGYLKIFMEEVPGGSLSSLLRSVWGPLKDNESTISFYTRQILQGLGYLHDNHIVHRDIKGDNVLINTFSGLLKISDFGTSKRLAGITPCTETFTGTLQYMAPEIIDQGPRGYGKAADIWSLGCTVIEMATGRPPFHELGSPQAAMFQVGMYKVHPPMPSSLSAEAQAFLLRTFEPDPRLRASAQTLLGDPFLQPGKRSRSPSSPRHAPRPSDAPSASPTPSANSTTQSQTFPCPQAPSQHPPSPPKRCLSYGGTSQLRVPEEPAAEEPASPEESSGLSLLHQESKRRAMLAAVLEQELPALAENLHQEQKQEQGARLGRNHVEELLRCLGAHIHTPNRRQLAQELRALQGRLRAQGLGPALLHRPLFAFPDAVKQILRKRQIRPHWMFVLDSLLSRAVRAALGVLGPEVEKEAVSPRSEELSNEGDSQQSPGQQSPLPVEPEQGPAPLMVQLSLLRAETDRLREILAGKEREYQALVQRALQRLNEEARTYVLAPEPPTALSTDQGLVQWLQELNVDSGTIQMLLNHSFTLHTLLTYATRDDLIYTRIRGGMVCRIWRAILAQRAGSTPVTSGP
# [4] = target: T3, MAP/microtubule affinity-regulating kinase 4 (Homo sapiens, UniProt Q96L34)
# T3 sequence (Q96L34 whole entry): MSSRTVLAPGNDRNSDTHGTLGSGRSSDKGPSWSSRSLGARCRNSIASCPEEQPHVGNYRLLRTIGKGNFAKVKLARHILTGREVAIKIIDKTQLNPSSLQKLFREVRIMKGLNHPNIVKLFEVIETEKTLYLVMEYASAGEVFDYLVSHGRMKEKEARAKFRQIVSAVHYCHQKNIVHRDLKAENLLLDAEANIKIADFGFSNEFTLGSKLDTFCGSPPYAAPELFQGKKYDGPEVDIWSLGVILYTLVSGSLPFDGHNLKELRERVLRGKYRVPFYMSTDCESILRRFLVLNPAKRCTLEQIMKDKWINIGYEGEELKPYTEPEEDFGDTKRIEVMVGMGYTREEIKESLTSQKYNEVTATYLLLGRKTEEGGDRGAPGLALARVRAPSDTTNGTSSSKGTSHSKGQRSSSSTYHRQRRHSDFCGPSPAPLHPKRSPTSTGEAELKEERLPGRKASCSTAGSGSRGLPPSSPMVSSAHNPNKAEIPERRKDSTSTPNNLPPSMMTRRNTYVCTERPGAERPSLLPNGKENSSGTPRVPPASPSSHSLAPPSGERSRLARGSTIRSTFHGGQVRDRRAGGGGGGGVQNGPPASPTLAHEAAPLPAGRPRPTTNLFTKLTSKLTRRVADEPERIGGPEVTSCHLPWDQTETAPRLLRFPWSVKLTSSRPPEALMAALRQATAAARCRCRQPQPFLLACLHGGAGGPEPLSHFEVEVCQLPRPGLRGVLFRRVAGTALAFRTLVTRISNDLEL
# [5] = target: Myosin-10 (Homo sapiens, UniProt P35580)
# [6] = target: Phosphatidylethanolamine-binding protein 1 (Homo sapiens, UniProt P30086)
# Further: in the data inactive means no Kd found up to 30 µM.
# Chain of Phosphatidylethanolamine-binding protein 1 (P30086 whole entry): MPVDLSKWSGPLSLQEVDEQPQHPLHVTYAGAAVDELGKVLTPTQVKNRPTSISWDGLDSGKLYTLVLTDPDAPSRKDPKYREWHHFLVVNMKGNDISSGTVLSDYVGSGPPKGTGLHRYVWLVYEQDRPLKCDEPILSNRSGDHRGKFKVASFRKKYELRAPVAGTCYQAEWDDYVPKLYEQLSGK
# Chain of Myosin-10 (P35580 whole entry): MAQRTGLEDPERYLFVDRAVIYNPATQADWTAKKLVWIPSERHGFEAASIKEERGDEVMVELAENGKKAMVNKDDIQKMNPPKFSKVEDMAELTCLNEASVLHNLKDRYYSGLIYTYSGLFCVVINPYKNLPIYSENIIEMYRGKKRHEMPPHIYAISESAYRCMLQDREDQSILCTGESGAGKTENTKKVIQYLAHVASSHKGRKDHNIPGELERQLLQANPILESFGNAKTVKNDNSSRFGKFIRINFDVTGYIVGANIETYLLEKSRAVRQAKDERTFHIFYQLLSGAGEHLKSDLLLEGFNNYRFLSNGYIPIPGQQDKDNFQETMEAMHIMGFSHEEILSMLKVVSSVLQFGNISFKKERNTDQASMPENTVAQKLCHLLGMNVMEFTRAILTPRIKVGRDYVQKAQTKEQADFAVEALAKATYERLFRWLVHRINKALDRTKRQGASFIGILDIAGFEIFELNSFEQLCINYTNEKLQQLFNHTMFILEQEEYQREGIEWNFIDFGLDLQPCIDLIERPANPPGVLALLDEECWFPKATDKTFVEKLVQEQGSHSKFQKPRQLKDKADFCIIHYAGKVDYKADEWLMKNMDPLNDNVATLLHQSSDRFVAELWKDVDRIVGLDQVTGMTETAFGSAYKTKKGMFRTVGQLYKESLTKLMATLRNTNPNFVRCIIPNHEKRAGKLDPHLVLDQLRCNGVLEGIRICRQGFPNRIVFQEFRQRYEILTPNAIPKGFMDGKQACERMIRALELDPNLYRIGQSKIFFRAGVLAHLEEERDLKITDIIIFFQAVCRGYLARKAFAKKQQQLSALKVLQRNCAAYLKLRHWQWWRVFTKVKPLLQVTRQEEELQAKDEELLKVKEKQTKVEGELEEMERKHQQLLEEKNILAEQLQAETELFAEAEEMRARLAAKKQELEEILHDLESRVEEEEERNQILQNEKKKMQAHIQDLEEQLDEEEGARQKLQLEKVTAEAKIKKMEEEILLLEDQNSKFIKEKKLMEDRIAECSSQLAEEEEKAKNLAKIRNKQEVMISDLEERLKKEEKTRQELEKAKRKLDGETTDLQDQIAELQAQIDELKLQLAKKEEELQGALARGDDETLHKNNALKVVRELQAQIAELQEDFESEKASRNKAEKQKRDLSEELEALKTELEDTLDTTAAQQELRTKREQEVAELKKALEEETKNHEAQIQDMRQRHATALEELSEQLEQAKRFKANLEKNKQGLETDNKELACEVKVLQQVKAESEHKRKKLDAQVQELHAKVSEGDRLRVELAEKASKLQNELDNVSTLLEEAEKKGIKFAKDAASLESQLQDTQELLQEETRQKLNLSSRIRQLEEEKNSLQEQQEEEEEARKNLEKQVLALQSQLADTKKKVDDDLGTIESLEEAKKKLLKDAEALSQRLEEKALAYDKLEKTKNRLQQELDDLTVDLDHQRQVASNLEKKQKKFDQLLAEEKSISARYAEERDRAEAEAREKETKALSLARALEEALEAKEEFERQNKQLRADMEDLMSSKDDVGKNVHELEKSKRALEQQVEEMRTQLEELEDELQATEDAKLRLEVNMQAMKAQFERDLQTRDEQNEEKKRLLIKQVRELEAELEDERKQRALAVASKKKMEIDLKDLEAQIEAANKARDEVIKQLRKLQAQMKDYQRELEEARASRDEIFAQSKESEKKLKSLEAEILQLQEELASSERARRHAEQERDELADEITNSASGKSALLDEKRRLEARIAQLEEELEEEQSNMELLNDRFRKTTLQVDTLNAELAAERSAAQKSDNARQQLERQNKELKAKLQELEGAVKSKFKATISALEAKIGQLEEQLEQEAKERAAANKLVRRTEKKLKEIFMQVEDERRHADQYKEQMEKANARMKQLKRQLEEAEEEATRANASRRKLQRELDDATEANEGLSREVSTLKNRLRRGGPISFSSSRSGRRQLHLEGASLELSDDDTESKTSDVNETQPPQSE
Kd [1],Kd [2],Kd [3],Kd [4],Kd [5],Kd [6],SMILES
> 30 µM (inactive),> 30 µM (inactive),> 30 µM (inactive),> 30 µM (inactive),> 30 µM (inactive),> 30 µM (inactive),COCC(=O)NC/C=C/c1ccc2ncnc(Nc3ccc(Oc4ccc(C)nc4)c(C)c3)c2c1 [CP-724714]
> 30 µM (inactive),> 30 µM (inactive),> 30 µM (inactive),> 30 µM (inactive),> 30 µM (inactive),> 30 µM (inactive),C#Cc1cccc(Nc2ncnc3cc(OC)c(OCCCCCCC(=O)NO)cc23)c1 [CUDC-101]
> 30 µM (inactive),> 30 µM (inactive),> 30 µM (inactive),> 30 µM (inactive),> 30 µM (inactive),> 30 µM (inactive),NC1(c2ccc(-c3nc4ccn5c(=O)[nH]nc5c4cc3-c3ccccc3)cc2)CCC1 [MK-2206]
> 30 µM (inactive),> 30 µM (inactive),> 30 µM (inactive),> 30 µM (inactive),> 30 µM (inactive),> 30 µM (inactive),NC(=O)c1c(OCc2c(F)cc(Br)cc2F)nsc1NC(=O)NCCCCN1CCCC1 [OSI-632]
> 30 µM (inactive),> 30 µM (inactive),> 30 µM (inactive),> 30 µM (inactive),> 30 µM (inactive),> 30 µM (inactive),Cn1cc(-c2cnn3c(N)c(Br)c([C@@H]4CCCNC4)nc23)cn1 [SCH-900776]

# The remaining lines, values behind:
SMILES,Kd [1],Kd [2],Kd [3],Kd [4],Kd [5],Kd [6]
CC(C)(C)c1nc(-c2cccc(NS(=O)(=O)c3c(F)cccc3F)c2F)c(-c2ccnc(N)n2)s1 [DABRAFENIB],> 30 µM (inactive),> 30 µM (inactive),> 30 µM (inactive),> 30 µM (inactive),> 30 µM (inactive),> 30 µM (inactive)
O=C(Nc1nc2cccc(-c3ccc(CN4CCS(=O)(=O)CC4)cc3)n2n1)C1CC1 [FILGOTINIB],> 30 µM (inactive),> 30 µM (inactive),> 30 µM (inactive),> 30 µM (inactive),> 30 µM (inactive),> 30 µM (inactive)
CNC(=O)c1cccc2cc(Oc3ccnc4cc(OCC5(N)CC5)c(OC)cc34)ccc12 [LUCITANIB],> 30 µM (inactive),> 30 µM (inactive),> 30 µM (inactive),> 30 µM (inactive),> 30 µM (inactive),> 30 µM (inactive)
FC(F)(F)c1ccc(/C=C/c2nc(COc3ccc(CCCCn4ccnn4)cc3)co2)cc1 [MUBRITINIB],> 30 µM (inactive),> 30 µM (inactive),> 30 µM (inactive),> 30 µM (inactive),> 30 µM (inactive),> 30 µM (inactive)
COc1ncc(-c2ccc3nccc(-c4ccnnc4)c3c2)cc1NS(=O)(=O)c1ccc(F)cc1F [OMIPALISIB],> 30 µM (inactive),> 30 µM (inactive),> 30 µM (inactive),> 30 µM (inactive),> 30 µM (inactive),> 30 µM (inactive)
CCOc1cc2ncc(C#N)c(Nc3ccc(F)c(Cl)c3)c2cc1NC(=O)/C=C/CN(C)C [PELITINIB],> 30 µM (inactive),> 30 µM (inactive),> 30 µM (inactive),> 30 µM (inactive),> 30 µM (inactive),> 30 µM (inactive)
Cc1cnc(NC(=O)Nc2cc(Br)c(C)cc2OC[C@@H]2CNCCO2)cn1 [RABUSERTIB],> 30 µM (inactive),> 30 µM (inactive),> 30 µM (inactive),> 30 µM (inactive),> 30 µM (inactive),> 30 µM (inactive)
CO[C@H]1C[C@@H]2CC[C@@H](C)[C@@](O)(O2)C(=O)C(=O)N2CCCC[C@H]2C(=O)O[C@H]([C@H](C)C[C@@H]2CC[C@@H](OP(C)(C)=O)[C@H](OC)C2)CC(=O)[C@H](C)/C=C(\C)[C@@H](O)[C@@H](OC)C(=O)[C@H](C)C[C@H](C)/C=C/C=C/C=C/1C [RIDAFOROLIMUS],> 30 µM (inactive),> 30 µM (inactive),> 30 µM (inactive),> 30 µM (inactive),> 30 µM (inactive),> 30 µM (inactive)
N#CC1(c2ccc(NC(=O)c3cccnc3NCc3ccncc3)cc2)CCCC1 [RIVOCERANIB],> 30 µM (inactive),> 30 µM (inactive),> 30 µM (inactive),> 30 µM (inactive),> 30 µM (inactive),> 30 µM (inactive)
CO[C@H]1C[C@@H]2CC[C@@H](C)[C@@](O)(O2)C(=O)C(=O)N2CCCC[C@H]2C(=O)O[C@H]([C@H](C)C[C@@H]2CC[C@@H](O)[C@H](OC)C2)CC(=O)[C@H](C)/C=C(\C)[C@@H](O)[C@@H](OC)C(=O)[C@H](C)C[C@H](C)/C=C/C=C/C=C/1C [SIROLIMUS],> 30 µM (inactive),> 30 µM (inactive),> 30 µM (inactive),> 30 µM (inactive),> 30 µM (inactive),> 30 µM (inactive)
CO[C@H]1C[C@@H]2CC[C@@H](C)[C@@](O)(O2)C(=O)C(=O)N2CCCC[C@H]2C(=O)O[C@H]([C@H](C)C[C@@H]2CC[C@@H](OC(=O)C(C)(CO)CO)[C@H](OC)C2)CC(=O)[C@H](C)/C=C(\C)[C@@H](O)[C@@H](OC)C(=O)[C@H](C)C[C@H](C)/C=C/C=C/C=C/1C [TEMSIROLIMUS],> 30 µM (inactive),> 30 µM (inactive),> 30 µM (inactive),> 30 µM (inactive),> 30 µM (inactive),> 30 µM (inactive)
COc1cc2c(Nc3ccc(Cl)c(Cl)c3F)ncnc2cc1OC[C@@H]1C[C@@H]2CN(C)C[C@@H]2C1 [TESEVATINIB],> 30 µM (inactive),> 30 µM (inactive),> 30 µM (inactive),> 30 µM (inactive),> 30 µM (inactive),> 30 µM (inactive)
O=C(Cc1ccc(-c2ccc(OCCN3CCOCC3)cc2)cn1)NCc1ccccc1 [TIRBANIBULIN],> 30 µM (inactive),> 30 µM (inactive),> 30 µM (inactive),> 30 µM (inactive),> 30 µM (inactive),> 30 µM (inactive)
